In patent US5585383A, “Process for crystallizing a 4-azasteroid 5alpha-reductase inhibitor” (Merck & Co., Inc., priority 1995, dated 1996):
Entries after “also recorded” stand apart in the source; their conditions may differ.

Assay: Relative stability of crystalline polymorphs (DSC, x-ray powder diffraction)
Type: physicochemical
Details: non-solvated crystalline forms of 4,7β-dimethyl-4-aza-5α-cholestan-3-one
Method: The crystallinity of each batch was determined primarily from Differential Scanning Calorimetry (DSC) employing a DuPont Model 910 Thermal Analyzer. However, any other reliable means may be employed to determine the crystallinity of a sample, such as x-ray powder diffraction, solid state NMR, or polarizing microscopy.
Generally, a DSC sample was prepared by weighing. 10 to 30 mg of material into a DSC cup and crimping the cup closed. Preferably, each DSC sample was run as soon as possible after preparation, most preferably within 15 minutes of preparation, because crystallinity increases with aging. Generally, samples were heated at a rate of 10° C./min from 10° C. to 100° C. under nitrogen. The DSC peaks were integrated and the measured heat of formation was divided by 46.6 J/g (the average heat of formation of samples confirmed by x-ray diffraction to contain no Form II) to calculate the percent crystallinity of the sample. The term percent crystallinity refers to the weight percent of 4,7β-dimethyl-4-aza-5α-cholestan-3-one sample weight in Form I.
X-ray diffraction was also employed to confirm DSC results. […] This method was not employed for quantitative analysis of the degree of crystallinity.

Row | SMILES | polymorph stability
1 | CC(C)CCC[C@@H](C)[C@H]1CC[C@H]2[C@@H]3[C@@H](C)C[C@H]4N(C)C(=O)CC[C@]4(C)[C@H]3CC[C@]12C [Form I, 4,7β-dimethyl-4-aza-5α-cholestan-3-one] | more stable, energetically favored polymorph
2 | CC(C)CCC[C@@H](C)[C@H]1CC[C@H]2[C@@H]3[C@@H](C)C[C@H]4N(C)C(=O)CC[C@]4(C)[C@H]3CC[C@]12C [Form II, 4,7β-dimethyl-4-aza-5α-cholestan-3-one] | transforms to Form I with time and/or mechanical manipulation; also recorded: less energetically favored polymorph
